Consider 5 compounds from patent EP1070454A1, “TRANSGENIC ANIMAL SHOWING VASCULAR TISSUE-SPECIFIC EXPRESSION OF ANGIOTENSIN II2 RECEPTOR” (SUNTORY LIMITED, priority 1999, dated 2000).

Experiment [1] has as its system cGMP production in isolated aorta. Briefly: Angiotensin II-induced cGMP production in isolated aorta (radioimmunoassay). The experiment is classed as cell-based, mice. Particulars: for inhibition of the increase of cGMP production: increase caused by AngII + CV11974; for Angiotensin II-induced cGMP production in isolated aorta: mean ± SE. From the text:
Then, AngII-induced cGMP production in isolated aortic vessels was compared between transgenic and wild-type mice in order to examine whether or not vasodilator action of AngII is mediated by cGMP. After abdominal incision of each mouse, the abdominal aorta was isolated and the aortic extract homogenized by sonication in ethanol was dried in nitrogen and treated with an acetylation reagent (acetic anhydride : triethylamine = 1:2) and then assayed for cGMP level by radioimmunoassay using an anti cGMP antibody (Table 3). […]

The subject of experiment [2] is kininogenase. Briefly: Angiotensin II-induced kininogenase activity in isolated aorta (radioimmunoassay). Particulars: for inhibition of the increase of kininogenase activity: increase caused by AngII + CV11974; for Angiotensin II-induced kininogenase activity in isolated aorta: mean ± SE. The format is biochemical, mice. On the procedure:
Then, the activity of kininogenase, which is an enzyme for producing bradykinin from kinonogen, was compared between transgenic and wild-type mice in isolated aortic vessels. After abdominal incision of each mouse, the abdominal aorta was isolated and the aortic extract homogenized in the presence of 0.1 M phosphate buffer (0.2% bacitracin, 3 mM O-phenanthroline, 30 mM EDTA-Na2) containing a protease inhibitor was dried in nitrogen under 90% ethanol. The dried extract was solubilized in a buffer containing an angiotensin-converting enzyme inhibitor and tested for kininogenase activity by radioimmunoassay of […] produced from bovine kininogen as a substrate (Table 4).

For experiment [3], the system named is isolated aorta. Briefly: Angiotensin II-induced contraction of isolated aorta (rings in myograph). The experiment is classed as cell-based, mice. Particulars: for Angiotensin II-induced vasoconstriction: isolated abdominal aorta rings, mean ± SE. On the procedure: AngII-induced contraction of isolated aortic vessels was compared between transgenic and wild-type mice. After abdominal incision of each mouse, the abdominal aorta was isolated and cut into rings, which were then suspended under a constant tension of 0.8 g in a myograph. Change of vascular tension after addition of AngII was recorded under perfusion with Tyrode's solution (137 mmol/L NaCl, 2.7 mmol/L KCl, 1.8 mmol/L CaCl2, 1.1 mmol/L MgCl2, 0.42 mmol/L NaH2PO4, 12 mmol/L NaHCO3 and 5.7 mmol/L glucose, pH 7.4) (Table 2). AngII-induced contraction of isolated aorta increased by about 24% in AT2-TG mice in the presence of an AT2 receptor inhibitor (PD123319, 1-[[4-(dimethylamino)-3-methylphenyl]methyl]-5-(diphenylacetyl)-4,5,6,7-tetrahydro-1H-imidazo[4,5-c]pyridine-6-carboxylic acid ditrifluoroacetate monohydrate available from PARKE-DAVIS, Ann Arbor, Michigan) as compared with the contraction in its absence.

Experiment [4] is described as follows: Blood pressure change after continuous administration of angiotensin II (tail-cuff method). The format is in vivo, mice. Particulars: for Average blood pressure under administration of angiotensin II: AngII 0.7 mg/day/kg via osmotic pump, mean ± SE. On the procedure: Change of average awaking blood pressure induced by chronic administration of angiotensin II (AngII) was compared between transgenic and wild-type mice. AngII (0.7 mg/day/kg) was chronically administered via an osmotic pump embedded in the back of each mouse, and the blood pressure of the mouse was measured at the tail by the tail-cuff method (Table 1). […]

Where [5] appears, read: AT2-TG mice, in the presence of AngII + CV11974 (AT2 receptor stimulation).
[6] abbreviates: wild-type mice, in the presence of AngII + CV11974 (AT2 receptor stimulation).

In the case of `CCOc1nc2cccc(C(=O)O)c2n1Cc1ccc(-c2ccccc2-c2nnn[nH]2)cc1` (racemic) [CV11974], the “increase of amount of cGMP produced in isolated aorta” value in experiment [1] (setting [5]) is given as 105%. Also, the “change of amount of cGMP produced in isolated aorta” value in experiment [1] (setting [6]) is “did not change”. Moreover, the “increase of kininogenase activity in isolated aorta” value in experiment [2] (setting [5]) was 150%. The “change of kininogenase activity in isolated aorta” value in experiment [2] (setting [6]) is given as “did not change”.

For `COC(=O)[C@@H](N)CCCNC(=N)N[N+](=O)[O-]` [L-NAME], the “inhibition of the increase of cGMP production” value in experiment [1] (AT2-TG mice) is “completely inhibited”. The “inhibition of the increase of kininogenase activity” value in experiment [2] (AT2-TG mice) is recorded as “completely inhibited”.

Consider `Cc1cc(Cn2cnc3c2CC(C(=O)O)N(C(=O)C(c2ccccc2)c2ccccc2)C3)ccc1N(C)C.O.O=C(O)C(F)(F)F.O=C(O)C(F)(F)F` (stereo not shown) [PD123319, 1-[[4-(dimethylamino)-3-methylphenyl]methyl]-5-(diphenylacetyl)-4,5,6,7-tetrahydro-1H-imidazo[4,5-c]pyridine-6-carboxylic acid ditrifluoroacetate monohydrate], for which the “increase of AngII-induced contraction of isolated aorta” value in experiment [3] (AT2-TG mice, in the presence of PD123319 compared with its absence) was “about 24%”. The “Angiotensin II-induced vasoconstriction” value is given as 124±2.1 % of control in experiment [3] (AT2-TG mice, with PD123319, relative to its absence) and 98±1.1 % of control in experiment [3] (Wild-type mice, with PD123319, relative to its absence). In addition, the “change of AngII-induced contraction” value in experiment [3] (wild-type mice, in the presence of PD123319) is recorded as “no contraction change”.

“Angiotensin II [AngII, vasopressor whose action is mediated through receptor subtypes AT1 and AT2]”: the “Angiotensin II-induced vasoconstriction” value in experiment [3] (AT2-TG mice, without or with PD123319) is 100±0.2 % of control; in experiment [3] (Wild-type mice, without or with PD123319), 100±0.7 % of control. Further, the entries for the “Angiotensin II-induced cGMP production in isolated aorta” value in experiment [1] (AT2-TG mice) and in experiment [1] (Wild-type mice) were 330±41 fmol/gwt and 328±14 fmol/gwt, respectively. For the same compound, the “Angiotensin II-induced kininogenase activity in isolated aorta” value in experiment [2] (AT2-TG mice) is 0.76±0.07 ng kinin/mg/h; in experiment [2] (Wild-type mice), 0.68±0.11 ng kinin/mg/h. In addition, the “Average blood pressure under administration of angiotensin II” value came to 85±1.8 mmHg in experiment [4] (AT2-TG mice, Day 0); 84±2.7 mmHg in experiment [4] (AT2-TG mice, Day 4); 87±2.1 mmHg in experiment [4] (AT2-TG mice, Day 7); 89±2.6 mmHg in experiment [4] (AT2-TG mice, Day 14); 83±2.7 mmHg in experiment [4] (Wild-type mice, Day 0); 94±2.1 mmHg in experiment [4] (Wild-type mice, Day 4). Further, the “Average blood pressure under administration of angiotensin II” value in experiment [4] (Wild-type mice, Day 7) came out at 114±2.8 mmHg; in experiment [4] (Wild-type mice, Day 14), 121±3.2 mmHg. In addition, in experiment [4] (AT2-TG mice, after 2 weeks, AngII 0.7 mg/day/kg), the blood pressure change entry is on record as “no blood pressure change”. In addition, in experiment [4] (wild-type mice, after 2 weeks, AngII 0.7 mg/day/kg), the “increase in average blood pressure” value came to 38 mmHg.

With icatibant, the “inhibition of the increase of cGMP production” value in experiment [1] (AT2-TG mice) is reported as “completely inhibited”. Moreover, in experiment [2] (AT2-TG mice), the “inhibition of the increase of kininogenase activity” value is given as “completely inhibited”.
